These results are taken from ChEMBL document CHEMBL1128112, “The Abu-pocket paradox of the cyclophilin a / cyclosporin a interaction” (1995).

For this test, the species on record is Mus musculus. The test is described as follows: Compound was tested in vitro for its immunosuppressive potential using mouse mixed lymphocyte reaction (MLR_M) with relative to Cyclophilin A. It counts as functional.

In turn, `C/C=C/C[C@@H](C)[C@@H](O)[C@H]1C(=O)N[C@@H](C(O)Cc2ccccc2)C(=O)N(C)CC(=O)N(C)[C@@H](CC(C)C)C(=O)N[C@@H](C(C)C)C(=O)N(C)[C@@H](CC(C)C)C(=O)N[C@@H](C)C(=O)N[C@H](C)C(=O)N(C)[C@@H](CC(C)C)C(=O)N(C)[C@@H](CC(C)C)C(=O)N(C)[C@@H](C(C)C)C(=O)N1C` (stereo partly specified) yielded a rIC50 of 360.
